In patent US4146631A, “Benzamide derivatives” (May & Baker Limited, priority 1976, dated 1979):

What was measured:
[1] = test system: passive cutaneous anaphylactic (PCA) reaction; assay: Passive cutaneous anaphylactic (PCA) reaction, reagin-allergen combination, in rats; assay type: in vivo; details: Rattus norvegicus; for ED100: intravenous, just before injection of allergen, read-out: ED100 (intravenous dose which produces 100% inhibition of the PCA reaction); for inhibition in vivo at 100 mg/kg: oral dose of 100 mg/kg; for inhibition in vivo at 100 mg/kg / ED50: thirty minutes before intravenous allergen; for ED50: oral, read-out: ED50 (oral dose which produces 50% inhibition of the PCA reaction)
From the text: In pharmacological tests the benzamide derivatives of general formula I suppress the passive cutaneous anaphylactic (PCA) reaction resulting from combination of tissue-fixed reaginic antibodies with the appropriate antigenic material (termed reagin-allergen combination) and carried out in an essentially similar manner to that described by Ogilvie [Nature (Lond.), (1964), 204, 91-92; Immunology, (1967), 12, 112-131]. In the method used to test these compounds sera were obtained from rats which had been infected with larvae of the nematode parasite Nippostrongylus brasiliensis; as a result of the parasitic infestation reaginic antibodies are elaborated in the host mammal and are found in sera removed from such animals. Other, non-infected, rats received intradermal injections of appropriate dilutions of such sera and were then given the allergenic material along with Evans' blue dye intravenously forty-eight hours later.
The allergenic material consisted of supernatant fluid after centrifugation of homogenates of adult Nippostrongylus brasiliensis worms which had been macerated in Tyrode's solution. The sites of PCA reactions were visualised by the effusion of Evan's blue dye from the circulation into those areas as a result of increased capillary permeability caused by the release of biologically-active substances from cells where reagin-allergen combination had occurred. The new compounds when given intravenously to the rats just before injection of allergen, or administered orally thirty minutes before intravenous injection of allergen, were able to prevent the development of the PCA reaction, as shown below in Table I, Table II and Table III.

[2] = Acute oral toxicity in mice; details: mouse, in vivo, highest dose used 1000 mg/kg, read-out: LD50 (doses lethal to 50% of mice tested)
From the text: Mice were each treated orally with one of the compounds of formula I, and they were observed daily until there had been at least 3 consecutive days without any deaths. The LD50 figures obtained (doses lethal to 50% of mice tested) are shown below in Table IV, expressed in mg/kg animal body weight.
The symbol ">" means "greater than" in this specification. Where the LD50 is said to be ">1000," a more precise estimation of the LD50 was not possible because the numbers of deaths was too small, even at the highest dose used, 1000 mg/kg.

[3] = Acute intravenous toxicity in mice; details: mouse, in vivo, 2% w/v test solution
From the text: Mice were each treated intravenously with an aqueous solution of the triethanolamine salt or sodium salt of one of the compounds of formula I, and they were observed until there had been at least 3 consecutive days without any deaths. The LD50 figures obtained (doses lethal to 50% of mice tested) are shown below in Table V, expressed in mg/kg animal body weight. In Table V, "Na" means that the sodium salt was used and "T" means that the triethanolamine salt was used.
The aqueous solutions were prepared as follows:
A mixture of the test compound and water was treated gradually with triethanolamine until complete solution occurred. The solution was then diluted with water to a concentration of test compound of either 1% w/v or 2% w/v.
The test compound was dissolved in aqueous sodium hydroxide (1N) and the solution was brought to pH 8 by treatment with hydrochloric acid. The solution was then diluted with water to a concentration of test compound of 2% w/v.
Various volumes of these solutions were then administered to the mice.

Row | Structure (SMILES) | ED100 [1] | inhibition in vivo at 100 mg/kg [1] | ED50 [1] | LD50 [2] | LD50 ([3]; triethanolamine salt (T)) | LD50 ([3]; sodium salt (Na))
1 | CCC(=O)c1cc(CC)cc(C(=O)Nc2nnn[nH]2)c1O [CF, 5-ethyl-2-hydroxy-3-propionyl-N-(tetrazol-5-yl)benzamide] | 0.05 mg/kg | 41% | 0.27 mg/kg | > 1000 mg/kg | 280 mg/kg | –
2 | O=C(Nc1nnn[nH]1)c1cc(Br)cc(Br)c1O [AY, 3,5-dibromo-2-hydroxy-N-(tetrazol-5-yl)benzamide] | 5 mg/kg | 65% | – | – | – | –
3 | CN(C)S(=O)(=O)c1ccc(O)c(C(=O)Nc2nnn[nH]2)c1 [AB, 2-hydroxy-5-(N,N-dimethylsulphamoyl)-N-(tetrazol-5-yl)benzamide] | 2 mg/kg | – | – | – | – | –
4 | O=C(Nc1nnn[nH]1)c1ccc(F)cc1O [BD, 4-fluoro-2-hydroxy-N-(tetrazol-5-yl)benzamide] | 10 mg/kg | 75% | – | – | – | –
5 | CC(=O)c1cc(Br)cc(C(=O)Nc2nnn[nH]2)c1O [CB, 3-acetyl-5-bromo-2-hydroxy-N-(tetrazol-5-yl)benzamide] | 2 mg/kg | 66% | 64 mg/kg | – | – | –
6 | Cc1cc(C(=O)Nc2nnn[nH]2)c(O)c(S(=O)(=O)NC(C)(C)C)c1 [BT, 3-(N-tert-butylsulphamoyl)-2-hydroxy-5-methyl-N-(tetrazol-5-yl)benzamide] | – | – | – | > 1000 mg/kg | – | 500 mg/kg
7 | O=C(Nc1nnn[nH]1)c1cc(Br)ccc1O [BM, 5-bromo-2-hydroxy-N-(tetrazol-5-yl)benzamide] | 5 mg/kg | 46% | 65 mg/kg | – | – | –
8 | Cc1ccc(C(=O)Nc2nnn[nH]2)c(O)c1 [AK, 2-hydroxy-4-methyl-N-(tetrazol-5-yl)benzamide] | 10 mg/kg | 32% | – | – | – | –
9 | CS(=O)(=O)c1cc(C(=O)Nc2nnn[nH]2)c(O)c(S(C)(=O)=O)c1 [BK, 2-hydroxy-3,5-bis(methylsulphonyl)-N-(tetrazol-5-yl)benzamide] | 10 mg/kg | 29% | – | – | – | –
10 | CC(C)N(C)S(=O)(=O)c1ccc(O)c(C(=O)Nc2nnn[nH]2)c1 [AC, 2-hydroxy-5-(N-methyl-N-isopropylsulphamoyl)-N-(tetrazol-5-yl)benzamide] | 5 mg/kg | 20% | – | – | – | –
11 | CCCCN(CCCC)S(=O)(=O)c1ccc(O)c(C(=O)Nc2nnn[nH]2)c1 [AQ, 5-(N,N-dibutylsulphamoyl)-2-hydroxy-N-(tetrazol-5-yl)benzamide] | – | – | – | > 1000 mg/kg | – | 280 mg/kg
12 | CN(C)c1cccc(C(=O)Nc2nnn[nH]2)c1O [CP, 2-hydroxy-3-dimethylamino-N-(tetrazol-5-yl)benzamide] | 2 mg/kg | 68% | 26 mg/kg | – | – | –
13 | Nc1ccc(O)c(C(=O)Nc2nnn[nH]2)c1 [Compound BS, 5-amino-2-hydroxy-N-(tetrazol-5-yl)benzamide] | 5 mg/kg | 35% | – | – | – | –
14 | CC(=O)c1cc(F)cc(C(=O)Nc2nnn[nH]2)c1O [CC, 3-acetyl-5-fluoro-2-hydroxy-N-(tetrazol-5-yl)benzamide] | 0.2 mg/kg | 62% | 1.9 mg/kg | – | – | –
15 | Cc1cc(C=O)c(O)c(C(=O)Nc2nnn[nH]2)c1 [CI, 3-formyl-2-hydroxy-5-methyl-N-(tetrazol-5-yl)benzamide] | 2 mg/kg | 70% | 5.4 mg/kg | – | – | –
16 | O=C(Nc1nnn[nH]1)c1cc(O)ccc1O [AF, 2,5-dihydroxy-N-(tetrazol-5-yl)benzamide] | 1 mg/kg | – | – | – | – | –
17 | N#Cc1ccc(O)c(C(=O)Nc2nnn[nH]2)c1 [CK, 5-cyano-2-hydroxy-N-(tetrazol-5-yl)benzamide] | 0.2 mg/kg | 89% | 50 mg/kg | – | – | –
18 | O=C(Nc1ccc(C(=O)Nc2nnn[nH]2)c(O)c1)OCc1ccccc1 [BR, 4-benzyloxycarbonylamino-2-hydroxy-N-(tetrazol-5-yl)benzamide] | 0.5 mg/kg | – | – | – | – | –
19 | O=C(Nc1nnn[nH]1)c1ccc(O)cc1O [AJ, 2,4-dihydroxy-N-(tetrazol-5-yl)benzamide] | 10 mg/kg | 38% | – | – | – | –

Row | Structure (SMILES) | ED100 [1] | inhibition in vivo at 100 mg/kg [1] | ED50 [1] | LD50 [2] | LD50 ([3]; triethanolamine salt (T)) | LD50 ([3]; sodium salt (Na))
20 | Cc1cc(C#N)c(O)c(C(=O)Nc2nnn[nH]2)c1 [Compound CL, 3-cyano-2-hydroxy-5-methyl-N-(tetrazol-5-yl)benzamide] | 2 mg/kg | 26% | – | – | – | –
21 | O=C(Nc1ccc(O)c(C(=O)Nc2nnn[nH]2)c1)OCc1ccccc1 [BQ, 5-benzyloxycarbonylamino-2-hydroxy-N-(tetrazol-5-yl)benzamide] | 5 mg/kg | – | – | – | – | –
22 | O=C(Nc1nnn[nH]1)c1cccc(Cl)c1O [AM, 3-chloro-2-hydroxy-N-(tetrazol-5-yl)benzamide] | 5 mg/kg | 82% | 85 mg/kg | – | – | –
23 | O=C(O)c1cccc(C(=O)Nc2nn[nH]n2)c1O [CN, 3-N-(tetrazol-5-yl)carbamoylsalicylic acid] | 1 mg/kg | 43% | 20 mg/kg | – | – | –
24 | O=C(Nc1nnn[nH]1)c1ccc([N+](=O)[O-])cc1O [Compound AA, 2-hydroxy-4-nitro-N-(tetrazol-5-yl)benzamide] | 10 mg/kg | 18% | – | – | – | –
25 | Cc1cc(C(=O)Nc2nnn[nH]2)c(O)c(-c2nnn[nH]2)c1 [CM, 2-hydroxy-5-methyl-3,N-bis(tetrazol-5-yl)benzamide] | 0.05 mg/kg | 64% | – | – | – | –
26 | CS(=O)(=O)c1ccc(O)c(C(=O)Nc2nnn[nH]2)c1 [BO, 2-hydroxy-5-methylsulphonyl-N-(tetrazol-5-yl)benzamide] | 5 mg/kg | 63% | – | – | – | –
27 | O=C(Nc1nnn[nH]1)c1cc(C(F)(F)F)ccc1O [Compound BV, 5-trifluoromethyl-2-hydroxy-N-(tetrazol-5-yl)benzamide] | 2 mg/kg | 90% | 37 mg/kg | – | – | –
28 | CS(=O)(=O)c1cccc(C(=O)Nc2nnn[nH]2)c1O [BJ, 2-hydroxy-3-methylsulphonyl-N-(tetrazol-5-yl)benzamide] | 20 mg/kg | 64% | – | – | – | –
29 | O=Cc1ccc(O)c(C(=O)Nc2nnn[nH]2)c1 [BL, 5-formyl-2-hydroxy-N-(tetrazol-5-yl)benzamide] | 0.5 mg/kg | 25% | – | – | – | –
30 | CC(=O)c1cc(S(N)(=O)=O)cc(C(=O)Nc2nnn[nH]2)c1O [Compound BU, 3-acetyl-2-hydroxy-5-sulphamoyl-N-(tetrazol-5-yl)benzamide] | 0.5 mg/kg | 86% | – | – | – | –
31 | COc1ccc(C(=O)Nc2nnn[nH]2)c(O)c1 [AT, 2-hydroxy-4-methoxy-N-(tetrazol-5-yl)benzamide] | 5 mg/kg | 8% | – | – | – | –
32 | CSc1cccc(C(=O)Nc2nnn[nH]2)c1O [BI, 2-hydroxy-3-methylthio-N-(tetrazol-5-yl)benzamide] | 20 mg/kg | – | – | – | 580 mg/kg | –
33 | CC(=O)Nc1ccc(O)c(C(=O)Nc2nnn[nH]2)c1 [AZ, 5-acetylamino-2-hydroxy-N-(tetrazol-5-yl)benzamide] | 10 mg/kg | – | – | – | – | –
34 | CC(C)(C)NC(=O)c1cccc(C(=O)Nc2nnn[nH]2)c1O [CO, 3-tert-butylcarbamoyl-2-hydroxy-N-(tetrazol-5-yl)benzamide] | 5 mg/kg | 26% | – | – | – | –
35 | O=Cc1cccc(C(=O)Nc2nnn[nH]2)c1O [CH, 3-formyl-2-hydroxy-N-(tetrazol-5-yl)benzamide] | 0.5 mg/kg | 75% | 5.3 mg/kg | – | – | –
36 | CSc1ccc(C(=O)Nc2nnn[nH]2)c(O)c1 [BN, 2-hydroxy-4-methylthio-N-(tetrazol-5-yl)benzamide] | 10 mg/kg | 8% | – | – | – | –
37 | O=C(Nc1nnn[nH]1)c1ccc(Cl)cc1O [AX, 4-chloro-2-hydroxy-N-(tetrazol-5-yl)benzamide] | – | – | – | > 1000 mg/kg | 260 mg/kg | –
38 | CSc1ccc(O)c(C(=O)Nc2nnn[nH]2)c1 [BF, 2-hydroxy-5-methylthio-N-(tetrazol-5-yl)benzamide] | 0.5 mg/kg | – | – | – | – | –
